Experiments:
Plasmodium falciparum [1] = assay: Hit confirmation in dose-response curve in NF54 pLDH assay, at 72h; format: functional, organism-based, Erythrocyte; design: timepoint 72 hour; settings: Plasmodium falciparum, NF54, Erythrocyte, 72 h
Plasmodium falciparum [2] = assay: Hit confirmation in dose-response curve in NF54 nanoGlo assay, at 72h; format: functional, organism-based, Erythrocyte; design: timepoint 72 hour; settings: Plasmodium falciparum, NF54, Erythrocyte, 72 h
Plasmodium falciparum [3] = assay: Hit confirmation in dose-response curve in NF54 nanoGlo assay, at 12h; format: functional, organism-based, Erythrocyte; design: timepoint 12 hour; settings: Plasmodium falciparum, NF54, Erythrocyte, 12 h
[4] = Hit confirmation in dose-response curve in HepG2 cytotoxicity assay, at 72h; format: toxicity, cell-based, Homo sapiens; design: timepoint 72 hour; settings: human, HepG2 cells
Plasmodium falciparum [5] = assay: Hit confirmation in dose-response curve in Dd2 pLDH assay, at 72h; format: functional, organism-based, Erythrocyte; design: timepoint 72 hour; settings: Plasmodium falciparum, Dd2, Erythrocyte, 72 h

Compound | IC50 (Plasmodium falciparum [1]) | IC50 (Plasmodium falciparum [2]) | IC50 (Plasmodium falciparum [3]) | IC50 at 72 h [4] | IC50 (Plasmodium falciparum [5])
Cc1cccc(Nc2ccnc(Nc3ccc(N4CCN(C)CC4)cc3)n2)c1 | 1.29 µM | 1.15 µM | > 10 µM | > 10 µM | 1.23 µM
N#Cc1cccc(Cl)c1N1CCC(N2CCCC2)CC1 | 3.89 µM | 3.02 µM | > 10 µM | > 10 µM | 3.8 µM
COc1ccc2c(N3CC[C@H](CN4CCCC4)C3)ccnc2c1 | 0.589 µM | 0.525 µM | 0.794 µM | > 10 µM | 0.417 µM
CN1CCN(c2ccc(C(F)(F)F)cc2NCc2cnc[nH]2)CC1 | 4.68 µM | 4.07 µM | 6.61 µM | > 10 µM | 4.27 µM
Oc1ccc(C2=CCN(Cc3cccc4[nH]ccc34)CC2)cc1 | 10 µM | 7.24 µM | > 10 µM | > 10 µM | 5.75 µM
CC(CNc1nc(NCC(C)N2CCOCC2)c2cc(Cl)ccc2n1)N1CCOCC1 (stereo not given) | 1.91 µM | 1.74 µM | > 10 µM | > 10 µM | 1.58 µM
NC(=O)[C@]1(O)CCN(c2ccnc3ccc(Oc4ccccc4)cc23)C1 | 3.8 µM | 3.31 µM | 7.76 µM | > 10 µM | 3.24 µM
CC(C)CCOc1ccc2[nH]c(-c3cc(N4CCC[C@@H]4CS(C)(=O)=O)ccn3)cc2c1 | 1.12 µM | 0.661 µM | 1.86 µM | > 10 µM | 0.891 µM
CCN1CCC[C@H](Nc2cccc(-n3ccnc3)n2)C1 | 4.37 µM | 3.63 µM | 7.08 µM | > 10 µM | 3.8 µM
Cn1cncc1[C@@H]1CNC[C@H]1CNC(=O)c1ccccc1NC1CCCCC1 | 6.76 µM | 3.89 µM | 8.13 µM | > 10 µM | 4.17 µM
CN(C)CCN1CCC(NC2CCC(O)(c3cccc(Cl)c3)CC2)CC1 (stereo not given) | 4.47 µM | 5.01 µM | > 10 µM | > 10 µM | 3.72 µM
NCC1(O)CCN(c2ccnc3cc(F)c(Cl)cc23)CC1 | 2.19 µM | 1.82 µM | 3.09 µM | > 10 µM | 3.24 µM
CC(C)(C)c1ccc(CNC[C@H](O)c2ccc(F)cc2F)cc1 | 2.82 µM | 0.891 µM | 1.45 µM | > 10 µM | 1.95 µM
COC(CN(Cc1nc(N)nc(Nc2ccc(C)cc2)n1)Cc1nc(N)nc(Nc2ccc(C)cc2)n1)OC | 3.47 µM | 0.912 µM | > 10 µM | > 10 µM | 1.45 µM
Cc1cc(NC[C@H](O)COc2ccc(F)cc2)nc2ccccc12 | 6.92 µM | 2.19 µM | 4.17 µM | > 10 µM | 4.07 µM
O[C@H]1CCN(Cc2cccc(NCc3cn4ccnc4s3)c2)C1 | 4.17 µM | 3.89 µM | 10 µM | > 10 µM | 3.8 µM
CCc1oc2ccccc2c1CNC[C@H](O)c1ccc(Cl)cc1 | 0.977 µM | 0.513 µM | 0.776 µM | > 10 µM | 0.955 µM
Cc1ccc2[nH]c(CNC[C@@H](CO)C3CCC3)cc2c1C | 4.57 µM | 2.45 µM | 4.47 µM | > 10 µM | 3.63 µM
C[C@H](Nc1nc(N)c2ccccc2n1)c1cccc(-n2cncn2)c1 | 5.89 µM | 4.47 µM | 10.2 µM | > 10 µM | 4.17 µM
O[C@@]1(c2c[nH]nn2)CCN(c2ccnc3cc(Cl)ccc23)C1 | 5.13 µM | 2.75 µM | 5.13 µM | > 10 µM | 3.8 µM
O=C(NCc1ccc(N2CCNCC2)c(F)c1)c1ccc(-c2noc(C(F)(F)F)n2)cc1 | 2.57 µM | 2.63 µM | 6.61 µM | > 10 µM | 2.63 µM
COc1ccnc(NCCCc2nc(-c3ccncc3)cs2)n1 | 5.89 µM | 4.79 µM | > 10 µM | > 10 µM | 4.68 µM
Cc1cc(N2CCC(NC3CCNC(c4ccccc4)C3)CC2)nc(C)n1 (stereo not given) | 9.12 µM | 4.37 µM | 10.2 µM | > 10 µM | 6.17 µM
O=C(Nc1cnc2c(c1)COCC2)c1cc2c(OC(F)(F)F)cccc2[nH]1 | 1.55 µM | 0.676 µM | 0.955 µM | > 10 µM | 2.19 µM
Cc1ccc2nc(-c3cccc(NC(=O)c4ccc(OC(F)(F)F)c(Cl)c4)c3)[nH]c2n1 | 6.46 µM | 3.31 µM | > 10 µM | > 10 µM | 4.37 µM
Cc1sc2nc(-c3ccccn3)nc(NCCc3nccn3C)c2c1-c1ccccc1 | 8.71 µM | 3.24 µM | 8.91 µM | 8.32 µM | 3.55 µM

Compound | IC50 (Plasmodium falciparum [1]) | IC50 (Plasmodium falciparum [2]) | IC50 (Plasmodium falciparum [3]) | IC50 at 72 h [4] | IC50 (Plasmodium falciparum [5])
COc1ccc(CCNCc2ccc3[nH]cnc3c2)c(Cl)c1 | 4.47 µM | 3.02 µM | > 10 µM | > 10 µM | 3.47 µM
O[C@@H](CNCc1ccc2c(c1)CCO2)c1ccc(F)c(F)c1 | 8.32 µM | 2.29 µM | 5.62 µM | > 10 µM | 3.72 µM
Brc1cccc(NCCNC2CCN(Cc3cccnc3)CC2)c1 | 3.8 µM | 3.8 µM | 8.51 µM | > 10 µM | 3.72 µM
CC(C)(C)n1ncc2c(NCc3ccc4cccnc4c3O)ncnc21 | 6.46 µM | 3.89 µM | 10 µM | 6.31 µM | 5.5 µM
Clc1ccc2[nH]c3c(c2c1)CCCC3NC1CCN(C2CCOC2)CC1 (stereo not given) | 2.75 µM | 1.82 µM | 3.8 µM | 10 µM | 2.63 µM
O=C(NCc1cccc(-c2cccnc2)c1)N[C@H]1CCN(C2CCCCC2)C1 | 1.29 µM | 3.98 µM | > 10 µM | > 10 µM | 4.47 µM
Cc1ocnc1CNC[C@H](O)c1ccc(Cl)c(Cl)c1 | 4.27 µM | 2.14 µM | 3.31 µM | > 10 µM | 3.02 µM
OCCN1CCC(NCCc2cc(Cl)cc(Cl)c2)CC1 | 3.63 µM | 4.07 µM | 6.61 µM | > 10 µM | 3.31 µM
CCCN1CCC(Nc2cc(C)nc3ccccc23)CC1 | 2.29 µM | 2.19 µM | 5.37 µM | > 10 µM | 1.78 µM
CCc1cc(Nc2ccc(N3CCOCC3)nc2)nc(-c2ccncc2)n1 | 4.47 µM | 3.72 µM | > 10 µM | > 10 µM | 6.31 µM
CCOc1cccc(N2CCN(C(=O)c3cc(-c4ccc(F)cc4)[nH]n3)CC2)n1 | > 10 µM | 5.01 µM | 2.95 µM | > 10 µM | > 10 µM
O[C@H]1CCN(Cc2ccccc2CNc2cccc(-n3ccnc3)n2)C1 | 2.24 µM | 1.41 µM | 3.63 µM | > 10 µM | 2.19 µM
CN1CCC(N(C)C[C@H](Nc2ncnc3ccccc23)c2ccccc2)CC1 | 1.7 µM | 0.977 µM | 1.62 µM | > 10 µM | 1.23 µM
Cn1nnc(C(=O)N2CCCCC23CCCCCC3)n1 | 5.5 µM | 2.24 µM | > 10 µM | > 10 µM | 2.29 µM
COc1ccc2[nH]cc(C3=CCN(c4ccc5nnc(-c6ccccc6F)n5n4)CC3)c2c1 | 8.71 µM | 2.69 µM | > 10 µM | > 10 µM | > 10 µM
COCCCN1CCC(Nc2ncnc3cc(C)c(C)cc23)CC1 | 1.7 µM | 1.17 µM | 2.04 µM | > 10 µM | 1.17 µM
CN(CCCn1ccnc1)c1ccnc2cc(Br)ccc12 | 0.437 µM | 0.55 µM | 1.1 µM | > 10 µM | 0.437 µM
CCN1CCN([C@H]2CCN(c3ccnc4ccncc34)C2)CC1 | 1.15 µM | 1.32 µM | 2 µM | > 10 µM | 1.12 µM
Cc1nc(-c2ccccn2)nc(NC2CCN(CC(F)F)CC2)c1C | 9.12 µM | 2.51 µM | > 10 µM | > 10 µM | 6.46 µM
COc1ccc2nc(C)cc(NCc3cccc(NC(=O)c4ccco4)c3)c2c1 | 2.45 µM | 1.17 µM | 3.31 µM | > 10 µM | 2.4 µM
CN(C)C1(CNc2nc(C(F)(F)F)nc3cc4c(cc23)OCO4)CCCCCC1 | 1.26 µM | 2.95 µM | > 10 µM | > 10 µM | 3.47 µM
CN1CCC(N(Cc2ccccc2)C(=O)c2cc3cnccc3[nH]2)CC1 | 2.95 µM | 2.51 µM | 5.37 µM | > 10 µM | 2.82 µM
CCN1CCC(N2CCC(C(=O)NCCc3ccc(OC(F)(F)F)cc3)CC2)CC1 | 3.8 µM | 3.31 µM | 6.76 µM | > 10 µM | 3.31 µM
CN([C@@H](c1ccccc1)c1ccccc1Br)S(=O)(=O)c1c[nH]c2ncccc12 | 9.77 µM | 7.08 µM | > 10 µM | > 10 µM | 7.41 µM
CCOc1cc2nccc(N3C[C@H]4CN(C)C[C@H]4C3)c2cc1OCC | 0.562 µM | 0.575 µM | 0.933 µM | > 10 µM | 0.525 µM
OC[C@H](CNCc1cc2ccc(F)cc2[nH]1)c1ccccc1Cl | 3.72 µM | 2.34 µM | 3.98 µM | > 10 µM | 3.31 µM

Source: ChEMBL document CHEMBL5308541, “MAIP: An Open-Source Tool to Enrich High-Throughput Screening Output and Identify Novel, Druglike Molecules with Antimalarial Activity” (ACS Med Chem Lett, 2023)
